# In publication PMC11091220, “Metabolism-driven in vitro/in vivo disconnect of an oral ERɑ VHL-PROTAC” (Communications Biology, 2024):
# Where “and” joins values, the source holds several entries; their conditions need not be identical. Equal values may be shown once. Read-outs that look alike come from different tables or passages of the source.
# Legend:
# [1] = biological target: T1, recombinant human ERα ligand binding domain (LBD) (Homo sapiens, UniProt P03372); test: ERα binding assay (LanthaScreen TR-FRET competition); conditions: mean ± s.d.; read-out: ERα binding IC50
# T1 construct: purchased Invitrogen PV4543
# T1 sequence (P03372 311-547 limits assumed): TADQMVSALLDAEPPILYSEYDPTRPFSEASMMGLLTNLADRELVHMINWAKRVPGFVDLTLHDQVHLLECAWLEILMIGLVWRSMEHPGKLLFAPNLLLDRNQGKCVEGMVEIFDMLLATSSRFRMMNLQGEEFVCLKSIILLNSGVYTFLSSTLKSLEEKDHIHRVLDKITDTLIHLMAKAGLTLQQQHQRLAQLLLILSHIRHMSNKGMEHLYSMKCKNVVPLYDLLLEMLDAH
# Method: The ability of compounds to bind to isolated ERα Ligand binding domain (ERα–LBD (GST)) was assessed in competition assays using a LanthaScreenTM Time-Resolved Fluorescence Resonance Energy Transfer (TR-FRET) detection end-point. For the LanthaScreen TR-FRET endpoint, a suitable fluorophore (Fluormone ES2, Product code P2645) and recombinant human ERα ligand binding domain (LBD) (product code PV4543) were purchased from Invitrogen and used to measure compound binding. A terbium-labelled anti-GST antibody (Product code PV3551) is used to indirectly label the receptor by binding to its GST tag, and competitive binding is detected by a test compounds’ ability to displace the fluorescent ligand resulting in a loss of TR-FRET signal between the Tb-anti-GST antibody and the tracer. The assay was performed with all reagent additions carried out using the Beckman Coulter BioRAPTR FRD microfluidic workstation: […]
# ERα = biological target: T2, ERα (Homo sapiens, UniProt P03372); test: ERα high throughput imaging degradation assay in MCF7 cells; format: cell-based; conditions: for Dmax: MCF7; for DC50: MCF7 cells, 20 to 24 hours; for ERa degradation (% vs fulv): Figure 6e, individual replicates
# T2 construct: endogenous in cells; host or cells: MCF7 (also MCF7 engineered to express Cas9)
# T2 sequence (P03372 1-595): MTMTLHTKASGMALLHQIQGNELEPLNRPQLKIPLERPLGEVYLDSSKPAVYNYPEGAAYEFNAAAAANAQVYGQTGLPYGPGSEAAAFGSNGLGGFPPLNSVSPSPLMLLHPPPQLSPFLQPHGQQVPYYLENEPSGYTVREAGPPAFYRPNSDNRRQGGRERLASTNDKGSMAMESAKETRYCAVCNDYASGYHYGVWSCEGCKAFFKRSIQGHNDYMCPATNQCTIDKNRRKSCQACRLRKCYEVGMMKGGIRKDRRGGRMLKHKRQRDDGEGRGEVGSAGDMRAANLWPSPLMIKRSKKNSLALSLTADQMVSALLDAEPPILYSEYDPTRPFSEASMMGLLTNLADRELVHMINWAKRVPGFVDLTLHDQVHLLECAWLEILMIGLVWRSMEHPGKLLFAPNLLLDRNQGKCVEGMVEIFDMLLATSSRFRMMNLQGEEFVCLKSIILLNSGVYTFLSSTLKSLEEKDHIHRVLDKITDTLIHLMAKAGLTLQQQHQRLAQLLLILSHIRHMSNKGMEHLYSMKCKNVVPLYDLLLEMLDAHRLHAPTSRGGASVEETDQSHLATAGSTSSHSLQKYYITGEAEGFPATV
# Method: Cells were fixed, permeabilised and stained with anti-ERα (rabbit clone SP1, Thermo) and anti-PR (mouse clone PgR 636, Dako) antibodies followed by secondary AlexaFluor 594 goat anti-rabbit and AlexaFluor 488 goat anti-mouse IgG antibodies. Imaging was using the Thermo Cellinsight scanner and average fluorescence intensity was analysed using Genedata.
# Chromatographic LogD = format: physicochemical; conditions: Waters Acquity BEH C18 column, pH 7.4
# Method: An HPLC with UV detection using diode array detection over a wavelength range of 210-320 nm and confirmation by electrospray mass spectrometry (pos/neg ionisation) is used to determine the chromatographic LogD of compounds. Test compounds, calibrants, and QC samples are prepared as 10 mM stocks in DMSO and further diluted to a final concentration of 0.6 mM in DMSO. […] The chromatographic system is calibrated using standards with known literature values of octanol-water partition coefficient at pH 7.4 (logD7.4) and retention factors, k’, of calibrants, QCs, and samples calculated using equation: k’=(rt-t0)/t0.
# [2] = Plasma exposure of AZ’6421 and metabolite 8 in CTC174 PDX mice (free, cover over DC90); format: in vivo, mouse
# Method: Mice were randomised into groups of 5 once tumour sizes reached approximately 0.3 to 0.4 cm^3. A vehicle control or AZ’6421 1, 3, 10, 30, and 100 mg/kg were dosed orally, once daily (QD) or twice daily (BID) in 5% v/v DMSO, 20% v/v Solutol HS15 in purified water formulation. AZD9833 was dosed once daily at 100 mg/kg in 40% TEG/60% (of 12.5%) SBE-β-CD formulation. Mice were dosed for 4 days and tumours were harvested 6 hours after the last dose. Tumour tissue was split into 3 and immediately snap-frozen in liquid nitrogen for subsequent analysis. Plasma samples were also taken at the end of the study by terminal cardiac bleed under isoflurane anaesthesia to measure pharmacokinetics and ensure the expected exposure was reached during the dosing period.
# Each plasma sample ([…]) was prepared using an appropriate dilution factor, and compared against an 11-point standard calibration curve (1-10000 nM) prepared in DMSO and spiked into blank plasma. Acetonitrile ([…]) was added with the internal standard, followed by centrifugation at 3000 rpm for 10 minutes. The supernatant ([…]) was then diluted in […] acetonitrile:water (75:25) and analyzed via UPLC-MS/MS.
# The MS/MS instrument used was either a Waters XEVO® TQ-S, Waters XEVO® TQ-D, or API 4000 (AB Sciex). The ultra-mass spectrometer used for sample analysis was completed in the MRM mode (MS/MS). Reverse-phase HPLC with a C18 column was used to separate the analytes. A mobile phase of 99% water/0.1% formic acid (solvent A) and a solvent phase of 99% acetonitrile/0.1% formic acid (solvent B) was used. A generic LC gradient elution was used at a flow rate of 0.5 mL/min with 95% solvent A and 5% solvent B for 0.3 min after which the concentration of solvent B was increased to 95% over 0.9 min before restoring it back to 5% for the remaining 0.5 min. Mass spectrometer methods were optimised for each compound.
# [3] = reverse-phase HPLC, read-out: chrom LogD
# [4] = reversed-phase HPLC, Table 2 source data, read-out: ChromLogD
compound,measurement,setting,value
Cc1ncsc1-c1ccc(CNC(=O)[C@@H]2C[C@@H](O)CN2C(=O)[C@@H](NC(=O)COCCCOCCCOc2cc(F)c([C@@H]3c4[nH]c5ccccc5c4C[C@@H](C)N3CC(C)(C)F)c(F)c2)C(C)(C)C)cc1 [Compound 5],IC50,[1],< 0.6 nM
same,Degradation vs fulvestrant,"ERα; Log M -7.0, listed as AZ'6421",101.3% and 100.0% and 100.9% and 100.7% and 96.8% and 100.1% and 99.4% and 99.7%
same,Dmax,"ERα; MCF7, read-out: ERα imaging Dmax, 0% vehicle control, 100% fulvestrant",100 ± 1%
same,DC50,ERα,0.4 ± 0.1 nM
same,ERa degradation (% vs fulv),"ERα; log[compound] (M) -6.52, listed as AZ'6421",99.33% and 99.93% and 101.36% and 100.78% and 99.17% and 100.53% and 100.63% and 100.07% and 100.14% and 100.02%
same,ERa degradation (% vs fulv),"ERα; log[compound] (M) -7.00, listed as AZ'6421",101.32% and 100.02% and 100.91% and 100.71% and 100.90% and 96.75% and 100.07% and 99.39% and 100.12% and 99.67%
same,ERa degradation (% vs fulv),"ERα; log[compound] (M) -7.51, listed as AZ'6421",100.79% and 99.35% and 100.85% and 99.32% and 100.51% and 92.08% and 99.13% and 99.41% and 100.03% and 98.51%
same,ERa degradation (% vs fulv),"ERα; log[compound] (M) -9.00, listed as AZ'6421",93.78% and 65.44% and 89.78% and 70.27% and 72.25% and 75.33% and 76.06% and 75.57% and 73.41% and 66.07%
same,ERa degradation (% vs fulv),"ERα; log[compound] (M) -9.51, listed as AZ'6421",66.11% and 33.08% and 64.57% and 26.47% and 39.19% and 41.32% and 37.58% and 27.55% and 33.68% and 36.35%
same,ERa degradation (% vs fulv),"ERα; log[compound] (M) -9.90, listed as AZ'6421",38.07% and 5.08% and 43.62% and 16.97% and 24.51% and 17.96% and 13.58% and 13.52% and 2.56% and 2.84%
same,ERa degradation (% vs fulv),"ERα; log[compound] (M) -10.51, listed as AZ'6421",17.15% and -10.39% and 19.63% and 15.57% and 7.27% and 25.30% and 2.21% and -11.02% and -6.17% and -0.64%
same,ERa degradation (% vs fulv),"ERα; log[compound] (M) -10.90, listed as AZ'6421",22.79% and -6.31% and 31.83% and 8.09% and 2.16% and 2.02% and 3.46% and -2.88% and 3.42% and 4.13%
same,ERa degradation (% vs fulv),"ERα; log[compound] (M) -11.51, listed as AZ'6421",16.49% and -4.42% and 21.83% and -8.62% and -7.44% and -0.35% and 7.90% and 8.64% and 8.25% and -5.38%
same,ERa degradation (% vs fulv),"ERα; log[compound] (M) -12.51, listed as AZ'6421",22.96% and -5.76% and 24.26% and -2.82% and -3.01% and -3.46% and -11.46% and 15.61% and -2.65% and -10.83%
same,chromatographic logD,Chromatographic LogD; [3],6.6 ± 0.4
same,chromatographic logD,Chromatographic LogD; [4],6.6
same,cover for target engagement by plasma drug concentration,[2]; 100 mg/kg dose,free plasma exposure > free DC90
same,fraction converted to 8 within 2 hours,"[2]; 100 mg/kg, from Fig. 6d",7%
C[C@@H]1Cc2c([nH]c3ccccc23)[C@@H](c2c(F)cc(OCCC(=O)O)cc2F)N1CC(C)(C)F [Compound 8],IC50,[1],< 0.5 nM
same,Dmax,"ERα; 0% vehicle control, 100% fulvestrant, read-out: ERα imaging Dmax",86 ± 4%
same,DC50,ERα,0.5 ± 0.1 nM
same,ERa degradation (% vs fulv),ERα; log[compound] (M) -6.52,86.16% and 85.41% and 90.14% and 89.92% and 86.68% and 83.66% and 85.58% and 80.53%
same,ERa degradation (% vs fulv),ERα; log[compound] (M) -7.00,65.22% and 84.95% and 90.84% and 90.97% and 84.15% and 85.62% and 84.72% and 83.12%
same,ERa degradation (% vs fulv),ERα; log[compound] (M) -7.51,87.11% and 87.02% and 90.35% and 91.70% and 85.51% and 86.15% and 84.84% and 84.81%
same,ERa degradation (% vs fulv),ERα; log[compound] (M) -7.90,81.45% and 85.48% and 90.59% and 86.35% and 80.42% and 79.30% and 79.15% and 77.88%
same,ERa degradation (% vs fulv),ERα; log[compound] (M) -8.52,80.28% and 76.86% and 80.57% and 81.16% and 72.31% and 67.13% and 75.58% and 76.43%
same,ERa degradation (% vs fulv),ERα; log[compound] (M) -9.00,64.37% and 61.04% and 63.02% and 63.61% and 52.14% and 45.07% and 64.32% and 69.99%
same,ERa degradation (% vs fulv),ERα; log[compound] (M) -9.51,21.08% and 35.46% and 24.68% and 25.02% and 22.82% and 21.75% and 38.96% and 36.82%
same,ERa degradation (% vs fulv),ERα; log[compound] (M) -9.90,20.56% and 6.22% and 6.66% and 18.09% and -5.08% and 24.12% and -6.47% and -3.82%
same,ERa degradation (% vs fulv),ERα; log[compound] (M) -10.51,-1.75% and -2.12% and 13.25% and 9.62% and 10.07% and 23.66% and -5.98% and -1.61%
same,ERa degradation (% vs fulv),ERα; log[compound] (M) -10.90,-0.94% and -3.29% and -5.11% and -4.81% and 28.56% and 0.42% and 1.50% and -12.94%
same,ERa degradation (% vs fulv),ERα; log[compound] (M) -11.51,5.64% and 1.40% and -9.86% and -6.66% and -0.74% and -8.00% and -7.44% and -13.98%
same,ERa degradation (% vs fulv),ERα; log[compound] (M) -12.51,-13.89% and 2.41% and -4.59% and -2.38% and -17.18% and -3.64% and -7.40% and -8.33%
same,chromatographic logD,Chromatographic LogD; [3],3.8
same,chromatographic logD,Chromatographic LogD; [4],3.8
same,"free plasma concentration, fold above the compounds DC90",[2]; AZ’6421 efficacy study,> 10 fold
same,"free plasma concentration, fold higher than free AZ’6421","[2]; steady state, AZ’6421 efficacy study",~ 10 fold
